This is an account of results in US8148391B2 (Cephalon, Inc., priority 2006, dated 2012).

The target in test [1] is T1, baculovirus-expressed ALK (Homo sapiens, UniProt Q9UM73).
T1 construct: host or cells: baculovirus expression system
As to the kind of experiment: ALK Kinase Assay (ELISA-type, time-resolved fluorescence). It is filed as biochemical. Conditions: ALK kinase inhibition, 1 μM ATP; read-out: ALK Activity. The gist of the method:
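Wells were coated with phospholipase C-γ at 10 μg/mL in Tris-buffered saline. Adding 30 ng/ml enzyme started the reaction, which ran at 37° C for 15 minutes before Eu-N1 PT66 antibody detection. Percent inhibition versus log10 concentration gave IC50 by variable-slope fit.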

For test [2], the target named is T2, c-Met (cytoplasmic domain) (Homo sapiens, UniProt P08581).
T2 construct: 10 ng/mL c-Met (cytoplasmic domain, Invitrogen Corporation #PV3143); purchased Invitrogen Corporation PV3143
T2 sequence (P08581 956-1390 limits assumed): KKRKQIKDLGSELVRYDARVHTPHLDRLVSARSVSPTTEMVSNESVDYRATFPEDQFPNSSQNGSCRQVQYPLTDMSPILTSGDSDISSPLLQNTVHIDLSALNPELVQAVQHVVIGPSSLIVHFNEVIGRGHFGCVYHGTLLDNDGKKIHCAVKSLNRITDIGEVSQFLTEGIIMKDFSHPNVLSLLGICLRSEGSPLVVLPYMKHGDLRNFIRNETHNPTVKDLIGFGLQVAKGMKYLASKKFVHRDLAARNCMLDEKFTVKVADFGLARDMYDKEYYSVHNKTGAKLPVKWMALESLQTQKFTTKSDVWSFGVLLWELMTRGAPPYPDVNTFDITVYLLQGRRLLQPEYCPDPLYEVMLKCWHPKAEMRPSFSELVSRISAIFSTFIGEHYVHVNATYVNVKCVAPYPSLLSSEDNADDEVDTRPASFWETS
Kind of test: c-Met Kinase Assay (same methods as for ALK, with modifications). It is filed as biochemical. Conditions: c-Met kinase inhibition, 1 μM ATP; read-out: cMet Activity. The method, boiled down: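 Steps: coat wells with PLC-γ (10 μg/mL, Tris-buffered saline); add 10 ng/mL c-Met cytoplasmic domain to initiate; incubate 15 min, 37° C; detect phosphoproduct via Eu-N1 PT66 antibody.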

T1 sequence (Q9UM73 19-1620): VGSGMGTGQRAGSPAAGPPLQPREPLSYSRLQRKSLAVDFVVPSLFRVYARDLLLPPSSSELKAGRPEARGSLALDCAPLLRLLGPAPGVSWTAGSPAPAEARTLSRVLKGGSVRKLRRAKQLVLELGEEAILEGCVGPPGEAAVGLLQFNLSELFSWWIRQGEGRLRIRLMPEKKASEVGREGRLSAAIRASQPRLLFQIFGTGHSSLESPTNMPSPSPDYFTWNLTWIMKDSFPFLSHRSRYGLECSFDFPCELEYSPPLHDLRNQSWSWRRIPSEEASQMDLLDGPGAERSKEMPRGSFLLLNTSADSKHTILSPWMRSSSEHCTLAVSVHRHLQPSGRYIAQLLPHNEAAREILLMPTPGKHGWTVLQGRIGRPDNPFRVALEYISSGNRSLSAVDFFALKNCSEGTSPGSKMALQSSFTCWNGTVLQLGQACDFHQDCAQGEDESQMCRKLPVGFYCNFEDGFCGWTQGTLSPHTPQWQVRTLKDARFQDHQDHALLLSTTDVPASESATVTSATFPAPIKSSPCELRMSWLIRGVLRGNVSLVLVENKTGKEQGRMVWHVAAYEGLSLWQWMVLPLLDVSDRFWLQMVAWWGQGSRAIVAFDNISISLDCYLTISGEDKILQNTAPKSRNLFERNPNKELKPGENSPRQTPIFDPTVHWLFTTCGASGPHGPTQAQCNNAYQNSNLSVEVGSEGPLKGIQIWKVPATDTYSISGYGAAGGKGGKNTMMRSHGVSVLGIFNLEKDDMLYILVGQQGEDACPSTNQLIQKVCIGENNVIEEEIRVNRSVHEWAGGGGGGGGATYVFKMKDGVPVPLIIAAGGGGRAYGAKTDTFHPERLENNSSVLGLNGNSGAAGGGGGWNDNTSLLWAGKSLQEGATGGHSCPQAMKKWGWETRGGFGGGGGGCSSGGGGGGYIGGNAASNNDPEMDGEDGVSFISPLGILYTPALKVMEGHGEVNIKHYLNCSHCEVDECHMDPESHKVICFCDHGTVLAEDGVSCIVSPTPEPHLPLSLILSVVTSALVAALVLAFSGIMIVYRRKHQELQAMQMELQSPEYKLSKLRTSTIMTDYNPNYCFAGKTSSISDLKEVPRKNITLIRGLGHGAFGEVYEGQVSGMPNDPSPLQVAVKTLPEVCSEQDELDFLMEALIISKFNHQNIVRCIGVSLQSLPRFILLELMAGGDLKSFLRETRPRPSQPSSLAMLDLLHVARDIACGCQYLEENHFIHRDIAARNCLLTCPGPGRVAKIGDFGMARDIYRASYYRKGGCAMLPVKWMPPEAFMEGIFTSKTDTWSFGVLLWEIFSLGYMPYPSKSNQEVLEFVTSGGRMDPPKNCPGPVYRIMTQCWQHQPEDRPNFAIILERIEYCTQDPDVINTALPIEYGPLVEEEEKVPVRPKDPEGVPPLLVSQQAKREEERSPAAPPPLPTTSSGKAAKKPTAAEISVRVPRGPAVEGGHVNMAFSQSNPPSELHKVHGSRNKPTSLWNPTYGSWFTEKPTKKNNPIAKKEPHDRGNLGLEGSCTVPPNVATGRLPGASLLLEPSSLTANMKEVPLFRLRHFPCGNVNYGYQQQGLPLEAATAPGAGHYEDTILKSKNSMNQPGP

Consider `C#CCNC(=O)c1sccc1Nc1nc(Nc2ccc3c(c2)NC(=O)CCC3(C)C)ncc1Cl` [Example 1623, 3-[5-Chloro-2-(5,5-dimethyl-2-oxo-2,3,4,5-tetrahydro-1H-benzo[b]azepin-8-ylamino)-pyrimidin-4-ylamino]-thiophene-2-carboxylic acid prop-2-ynylamide], for which the IC50 in test [1] was 100 to 1000 nM; in test [2], over 10000 nM.
The corresponding values for `CNC(=O)c1cc(-c2cnn(C)c2)cc(F)c1Nc1nc(Nc2ccc3c(c2)NC(=O)CCC3(C)C)ncc1Cl` [Example 1624, 2-[5-Chloro-2-(5,5-dimethyl-2-oxo-2,3,4,5-tetrahydro-1H-benzo[b]azepin-8-ylamino)-pyrimidin-4-ylamino]-3-fluoro-N-methyl-5-(1-methyl-1H-pyrazol-4-yl)-benzamide] are under 100 nM and under 100 nM.
The like results for `CN(C)[C@@H]1CCN(S(=O)(=O)c2ccccc2Nc2nc(Nc3ccc4c(c3)NC(=O)CCC4(C)C)ncc2Cl)C1` [Example 1625, 8-{5-Chloro-4-[2-((R)-3-dimethylamino-pyrrolidine-1-sulfonyl)-phenylamino]-pyrimidin-2-ylamino}-5,5-dimethyl-1,3,4,5-tetrahydro-benzo[b]azepin-2-one] were, in that order, under 100 nM and 1000 to 10000 nM.
The corresponding values for `CNC(=O)c1cccc(F)c1Nc1nc(Nc2ccc3c(c2)N(C(C)C)CCCC3(C)C)ncc1Cl` [Example 1626, 2-[5-Chloro-2-(1-isopropyl-5,5-dimethyl-2,3,4,5-tetrahydro-1H-benzo[b]azepin-8-ylamino)-pyrimidin-4-ylamino]-3-fluoro-N-methyl-benzamide] are 100 to 1000 nM and 100 to 1000 nM.
Take `C#CCNC(=O)c1cccc(F)c1Nc1nc(Nc2ccc3c(c2)N(C(C)C)CCCC3(C)C)ncc1Cl` [Example 1627, 2-[5-Chloro-2-(1-isopropyl-5,5-dimethyl-2,3,4,5-tetrahydro-1H-benzo[b]azepin-8-ylamino)-pyrimidin-4-ylamino]-3-fluoro-N-prop-2-ynyl-benzamide]: the IC50 in test [1] and in test [2] was 1000 to 10000 nM each time.
For the compound `CC(C)N1CCCC(C)(C)c2ccc(Nc3ncc(Cl)c(N[C@H]4[C@@H](C(N)=O)[C@@H]5C=C[C@H]4C5)n3)cc21` [Example 1628, (1S,2S,3R,4R)-3-[5-Chloro-2-(1-isopropyl-5,5-dimethyl-2,3,4,5-tetrahydro-1H-benzo[b]azepin-8-ylamino)-pyrimidin-4-ylamino]-bicyclo[2.2.1]hept-5-ene-2-carboxylic acid amide], the IC50 in test [1] was under 100 nM; in test [2] it was over 10000 nM.
The corresponding values for `COc1cc(N2CCOCC2)ccc1Nc1nc(Nc2ccc3c(c2)N(C(C)C)CCCC3(C)C)ncc1Cl` [Example 1629, 5-Chloro-N*2*-(1-isopropyl-5,5-dimethyl-2,3,4,5-tetrahydro-1H-benzo[b]azepin-8-yl)-N*4*-(2-methoxy-4-morpholin-4-yl-phenyl)-pyrimidine-2,4-diamine] are 100 to 1000 nM and over 10000 nM.
For `CNC(=O)c1cccc(F)c1Nc1nc(Nc2ccc3c(c2)N(C(=O)CN(C)C)CCCC3(C)C)ncc1Cl` [Example 1630, 2-{5-Chloro-2-[1-(2-dimethylamino-acetyl)-5,5-dimethyl-2,3,4,5-tetrahydro-1H-benzo[b]azepin-8-ylamino]-pyrimidin-4-ylamino}-3-fluoro-N-methyl-benzamide], the IC50 in test [1] and in test [2] was 100 to 1000 nM in each case.
With `C#CCNC(=O)c1cccc(F)c1Nc1nc(Nc2ccc3c(c2)N(C(=O)CN(C)C)CCCC3(C)C)ncc1Cl` [Example 1631, 2-{5-Chloro-2-[1-(2-dimethylamino-acetyl)-5,5-dimethyl-2,3,4,5-tetrahydro-1H-benzo[b]azepin-8-ylamino]-pyrimidin-4-ylamino}-3-fluoro-N-prop-2-ynyl-benzamide], the IC50 in test [1] and in test [2] was 100 to 1000 nM throughout.
In the case of `CCN1CCCC(C)(C)c2ccc(Nc3ncc(Cl)c(Nc4c(F)cccc4C(=O)NC)n3)cc21` [Example 1632, 2-[5-Chloro-2-(1-ethyl-5,5-dimethyl-2,3,4,5-tetrahydro-1H-benzo[b]azepin-8-ylamino)-pyrimidin-4-ylamino]-3-fluoro-N-methyl-benzamide], the IC50 in test [1] and in test [2] was 100 to 1000 nM throughout.
Regarding `C#CCNC(=O)c1cccc(F)c1Nc1nc(Nc2ccc3c(c2)N(CC)CCCC3(C)C)ncc1Cl` [Example 1633, 2-[5-Chloro-2-(1-ethyl-5,5-dimethyl-2,3,4,5-tetrahydro-1H-benzo[b]azepin-8-ylamino)-pyrimidin-4-ylamino]-3-fluoro-N-prop-2-ynyl-benzamide], the IC50 in test [1] and in test [2] was 100 to 1000 nM each time.
`CCN1CCCC(C)(C)c2ccc(Nc3ncc(Cl)c(N[C@H]4[C@@H](C(N)=O)[C@@H]5C=C[C@H]4C5)n3)cc21` [Example 1634, (1S,2S,3R,4R)-3-[5-Chloro-2-(1-ethyl-5,5-dimethyl-2,3,4,5-tetrahydro-1H-benzo[b]azepin-8-ylamino)-pyrimidin-4-ylamino]-bicyclo[2.2.1]hept-5-ene-2-carboxylic acid amide]: the values for the IC50 in test [1] and in test [2] were under 100 nM and 1000 to 10000 nM, respectively.
The like results for `CCN1CCCC(C)(C)c2ccc(Nc3ncc(Cl)c(Nc4ccc(N5CCOCC5)cc4OC)n3)cc21` [Example 1635, 5-Chloro-N*2*-(1-ethyl-5,5-dimethyl-2,3,4,5-tetrahydro-1H-benzo[b]azepin-8-yl)-N*4*-(2-methoxy-4-morpholin-4-yl-phenyl)-pyrimidine-2,4-diamine] were, in that order, 100 to 1000 nM and over 10000 nM.
The corresponding values for `CC(=O)NC1CC(C)(C)c2ccc(Nc3ncc(Cl)c(Nc4c(F)cccc4C(=O)NCC#N)n3)cc2NC1=O` (stereo not shown) [Example 1636, 2-[2-(3-Acetylamino-5,5-dimethyl-2-oxo-2,3,4,5-tetrahydro-1H-benzo[b]azepin-8-ylamino)-5-chloro-pyrimidin-4-ylamino]-N-cyanomethyl-3-fluoro-Benzamide] are under 100 nM and under 100 nM.
The like results for `COCC(=O)NC1CC(C)(C)c2ccc(Nc3ncc(Cl)c(Nc4c(F)cccc4C(=O)NCC#N)n3)cc2NC1=O` (stereo not shown) [Example 1637, 2-{5-Chloro-2-[3-(2-methoxy-acetylamino)-5,5-dimethyl-2-oxo-2,3,4,5-tetrahydro-1H-benzo[b]azepin-8-ylamino]-pyrimidin-4-ylamino}-N-cyanomethyl-3-fluoro-benzamide] were, in that order, under 100 nM and under 100 nM.
For the compound `CNC(=O)c1cccc(F)c1Nc1nc(Nc2ccc3c(c2)N(CCN(C)C)CCCC3(C)C)ncc1Cl` [Example 1638, 2-{5-Chloro-2-[1-(2-dimethylamino-ethyl)-5,5-dimethyl-2,3,4,5-tetrahydro-1H-benzo[b]azepin-8-ylamino]-pyrimidin-4-ylamino}-3-fluoro-N-methyl-benzamide], the IC50 in test [1] and in test [2] was under 100 nM throughout.
On to `C#CCNC(=O)c1cccc(F)c1Nc1nc(Nc2ccc3c(c2)N(CCN(C)C)CCCC3(C)C)ncc1Cl` [Example 1639, 2-{5-Chloro-2-[1-(2-dimethylamino-ethyl)-5,5-dimethyl-2,3,4,5-tetrahydro-1H-benzo[b]azepin-8-ylamino]-pyrimidin-4-ylamino}-3-fluoro-N-prop-2-ynyl-benzamide], for which the IC50 in test [1] is under 100 nM; in test [2], 100 to 1000 nM.
